This note sets out measurements from US6958352B2, “Compounds for inhibiting insulin secretion and methods related thereto” (SmithKline Beecham Corporation, priority 2002, dated 2005).

In general, IC50 refers to the point on the concentration scale where inhibition reaches its midpoint.

Like-named read-outs stand apart in the source and are kept apart here.

The target in this experiment is T1, mitochondrial calcium/sodium antiporter (Rattus norvegicus, UniProt Q6AXS0).
T1 sequence (Q6AXS0 1-585): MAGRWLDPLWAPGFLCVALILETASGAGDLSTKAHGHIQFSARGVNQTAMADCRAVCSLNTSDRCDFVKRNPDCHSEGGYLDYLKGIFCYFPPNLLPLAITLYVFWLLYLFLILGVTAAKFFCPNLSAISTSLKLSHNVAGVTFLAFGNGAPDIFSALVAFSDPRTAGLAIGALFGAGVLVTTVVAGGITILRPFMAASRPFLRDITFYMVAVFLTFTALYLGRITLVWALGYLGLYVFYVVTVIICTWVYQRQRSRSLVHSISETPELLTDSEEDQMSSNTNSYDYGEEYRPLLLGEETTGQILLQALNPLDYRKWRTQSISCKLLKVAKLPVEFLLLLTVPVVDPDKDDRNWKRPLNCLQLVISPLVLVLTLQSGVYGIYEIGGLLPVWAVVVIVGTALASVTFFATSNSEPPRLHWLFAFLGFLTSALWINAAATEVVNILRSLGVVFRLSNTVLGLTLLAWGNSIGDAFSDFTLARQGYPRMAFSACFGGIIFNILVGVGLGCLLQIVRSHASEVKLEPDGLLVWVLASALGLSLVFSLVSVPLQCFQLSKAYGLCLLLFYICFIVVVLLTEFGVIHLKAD
The experiment in a line: Inhibition of mitochondrial calcium/sodium antiporter activity (NaCl-induced mitochondrial calcium efflux, calcium green 5N fluorescence). The experiment is classed as cell-based. As to conditions: digitonin-permeabilized INS-1 cells, 20 mM NaCl. As to the method:
INS-1 rat insulinoma cells (see Example 16) were harvested by trypsinization, washed and resuspended at 10×10^6 cells/ml in assay buffer (250 mM sucrose, 10 mM HEPES, 2.5 mM K2HPO4, 5 mM succinate, pH 7.4) containing 0.007% digitonin, 60 μM CaCl2 and 0.05 μM calcium green 5N (Molecular Probes, Inc., Eugene, Oreg.). After a five-minute calcium loading incubation, ruthenium red (1 μM; Sigma, St. Louis, Mo.) was added to block further calcium uptake by mitochondria. Cell suspensions were dispensed into 96-well plates (100 μl per well, 1×10^6 cells per well) and candidate agents (i.e., candidate mitochondrial calcium/sodium antiporter inhibitors) were added to some sets of triplicate wells at concentrations of 1, 10 or 100 μM, while other sets of wells provided appropriate control conditions (e.g., buffer and vehicle controls). Baseline fluorescence measurements were made using a multiwell plate fluorimeter (F-MAX™, Molecular Devices Corp., Sunnyvale, Calif.; or PolarStar™, BMG Labtechnologies, Inc., Durham, N.C.) according to the manufacturer's instructions. Calcium efflux from mitochondria was then induced by adding NaCl to all wells to achieve a final concentration of 20 mM, and the rate of change in fluorescence in each well was monitored […] for two minutes and quantified using software included with the plate reader.

Setting [1] is: Table 2, preferred compounds, read-out: IC50 ≦ 10 μM.
Setting [2] is: Table 3, more preferred compounds, read-out: IC50 ≦ 1 μM.

Regarding `COC(=O)CSC(c1ccccc1C)c1cc(Cl)ccc1N` (stereo not shown) [Compound 11aa], the IC50 is no more than 10 µM under setting [1] and no more than 1 µM under setting [2]. On to `COC(=O)CSC(c1cc(Cl)ccc1N)C1CCCCC1` (stereo not shown) [Compound 11ak], for which the IC50 under setting [2] was no more than 1 µM.

Regarding `COC(=O)CSC(CC(C)C)c1cc(Cl)ccc1N` (stereo not shown) [Compound 11am], the half-maximal inhibitory concentration (IC50) under setting [1] is no more than 10 µM. Turning to `COC(=O)CSC(CCCOCc1ccccc1)c1cc(Cl)ccc1N` (stereo not shown) [Compound 11an], the half-inhibitory concentration (IC50) under setting [1] was no more than 10 µM. Turning to `COC(=O)CSC(c1cc(Cl)ccc1NC(=O)C(F)(F)F)c1c(C)cccc1C` (stereo not shown) [Compound 11ba], the IC50 is no more than 10 µM under setting [1] and no more than 1 µM under setting [2]. With `COC(=O)CSC(c1cc(Cl)ccc1N)c1sccc1C` (stereo not shown) [Compound 11c], the IC50 under setting [1] was no more than 10 µM. Take `COC(=O)CSC(c1cc(C)cc(C)c1)c1cc(Cl)ccc1N` (stereo not shown) [Compound 11d]: the IC50 was no more than 10 µM under setting [1] and no more than 1 µM under setting [2]. For the compound `COC(=O)CSC(c1nc2ccccc2s1)c1cc(Cl)ccc1N` (stereo not shown) [Compound 11f], under setting [1], the IC50 is no more than 10 µM. Regarding `COC(=O)CSC(c1cc(Cl)ccc1N)c1cccn1C` (stereo not shown) [Compound 11h], the IC50 was no more than 10 µM under setting [1] and no more than 1 µM under setting [2]. As to `COC(=O)CSC(c1cccc(C)c1)c1cc(Cl)ccc1N` (stereo not shown) [Compound 11i], the half-inhibitory concentration (IC50) under setting [1] was no more than 10 µM. Still for that read-out and setting: with `COC(=O)CSC(c1cc(Cl)ccc1N)c1cccc(C)c1C` (stereo not shown) [Compound 11k] the figure was no more than 10 µM; with `COC(=O)CSC(c1ccc(C)c(C)c1)c1cc(Cl)ccc1N` (stereo not shown) [Compound 11l], no more than 10 µM; with `COC(=O)CSC(c1cc(C)ccc1C)c1cc(Cl)ccc1N` (stereo not shown) [Compound 11m], no more than 10 µM. The same measure, in the same setting: then `COC(=O)CSC(c1ccccc1N)c1ccccc1Cl` (stereo not shown) [Compound 11r], with no more than 10 µM. Turning to `COC(=O)CSC(c1cc(Cl)ccc1N)c1ccccc1Cl` (stereo not shown) [Compound 11s], the 50% inhibitory concentration (IC50) was no more than 10 µM under setting [1] and no more than 1 µM under setting [2]. For `COC(=O)CSC(c1ccccc1)c1cc([N+](=O)[O-])ccc1N` (stereo not shown) [Compound 11t], the IC50 under setting [1] is no more than 10 µM. For `COC(=O)CSC(c1nccs1)c1cc(Cl)ccc1N` (stereo not shown) [Compound 11u], the IC50 under setting [1] was no more than 10 µM. Still for that read-out and setting: with `COC(=O)CSC(c1ccc(C)cc1C)c1cc(Cl)ccc1N` (stereo not shown) [Compound 11w] the figure was no more than 10 µM; with `COC(=O)CSC(c1ccccc1)c1cc(Cl)ccc1N` (stereo not shown) [Compound 11x], no more than 10 µM; with `CNC(=O)CSC(c1cc(Cl)ccc1N)c1ccccc1Cl` (stereo not shown) [Compound 13a], no more than 10 µM. Take `O=C(CSC(c1cc(Cl)ccc1O)c1ccccc1Cl)N1CCCCC1` (stereo not shown) [Compound 13ag]: the half-maximal inhibitory concentration (IC50) under setting [1] was no more than 10 µM.

As for `O=C(CSC(c1ccccc1)c1cc(Cl)ccc1O)N1CCCCC1` (stereo not shown) [Compound 13ai], the IC50 under setting [1] was no more than 10 µM. Regarding `CN(C)C(=O)CSC(c1cc(Cl)ccc1N)c1ccccc1Cl` (stereo not shown) [Compound 13b], the 50% inhibitory concentration (IC50) is no more than 10 µM under setting [1] and no more than 1 µM under setting [2].

On to `Nc1ccc(Cl)cc1C(SCC(=O)NCCc1ccccc1)c1ccccc1Cl` (stereo not shown) [Compound 13c], for which the IC50 by setting is: under setting [1], no more than 10 µM; under setting [2], no more than 1 µM. As to `Nc1ccc(Cl)cc1C(SCC(=O)N1CCCCC1)c1ccccc1Cl` (stereo not shown) [Compound 13d], the IC50 is, setting by setting: under setting [1], no more than 10 µM; under setting [2], no more than 1 µM. For `Nc1ccc(Cl)cc1C(SCC(=O)NCCO)c1ccccc1Cl` (stereo not shown) [Compound 13e], the half-maximal inhibitory concentration (IC50) under setting [1] was no more than 10 µM.

With `Nc1ccc(Cl)cc1C(SCC(=O)NCc1ccccc1)c1ccccc1Cl` (stereo not shown) [Compound 13f], the IC50 runs as follows: under setting [1], no more than 10 µM; under setting [2], no more than 1 µM. In the same order, the values of `CC(=O)NCCNC(=O)CSC(c1cc(Cl)ccc1N)c1ccccc1Cl` (stereo not shown) [Compound 13g] are no more than 10 µM and no more than 1 µM. In the case of `Nc1ccc(Cl)cc1C(SCC(=O)NC1CCCCC1)c1ccccc1Cl` (stereo not shown) [Compound 13h], the IC50 by setting is: under setting [1], no more than 10 µM; under setting [2], no more than 1 µM. Take `Nc1ccc(Cl)cc1C(SCC(=O)NCC(c1ccccc1)c1ccccc1)c1ccccc1Cl` (stereo not shown) [Compound 13i]: the IC50 runs as follows: under setting [1], no more than 10 µM; under setting [2], no more than 1 µM.

As to `Nc1ccc(Cl)cc1C(SCC(=O)N1CCN(c2ccccc2)CC1)c1ccccc1Cl` (stereo not shown) [Compound 13j], the IC50 was no more than 10 µM under setting [1] and no more than 1 µM under setting [2].

Take `CCCNC(=O)CSC(c1cc(Cl)ccc1N)c1ccccc1Cl` (stereo not shown) [Compound 13k]: the IC50 is no more than 10 µM under setting [1] and no more than 1 µM under setting [2]. Turning to `CCCCCCNC(=O)CSC(c1cc(Cl)ccc1N)c1ccccc1Cl` (stereo not shown) [Compound 13l], the IC50 was no more than 10 µM under setting [1] and no more than 1 µM under setting [2].

On to `COCCCNC(=O)CSC(c1cc(Cl)ccc1N)c1ccccc1Cl` (stereo not shown) [Compound 13m], for which the IC50 by setting is: under setting [1], no more than 10 µM; under setting [2], no more than 1 µM.

Regarding `Nc1ccc(Cl)cc1C(SCC(=O)NCC1CCCCC1)c1ccccc1Cl` (stereo not shown) [Compound 13n], the IC50 reads like this: under setting [1], no more than 10 µM; under setting [2], no more than 1 µM.

As to `C#CCNC(=O)CSC(c1cc(Cl)ccc1N)c1ccccc1Cl` (stereo not shown) [Compound 13o], the half-maximal inhibitory concentration (IC50) is, setting by setting: under setting [1], no more than 10 µM; under setting [2], no more than 1 µM. `Nc1ccc(Cl)cc1C(SCC(=O)NCCCn1ccnc1)c1ccccc1Cl` (stereo not shown) [Compound 13p]: the IC50 runs as follows: under setting [1], no more than 10 µM; under setting [2], no more than 1 µM. Consider `CN(C)CCCNC(=O)CSC(c1cc(Cl)ccc1N)c1ccccc1Cl` (stereo not shown) [Compound 13q], for which, under setting [1], the IC50 is no more than 10 µM.

Turning to `Nc1ccc(Cl)cc1C(SCC(=O)NC1CC1)c1ccccc1Cl` (stereo not shown) [Compound 13r], the IC50 reads like this: under setting [1], no more than 10 µM; under setting [2], no more than 1 µM. `Nc1ccc(Cl)cc1C(SCC(=O)NCCc1ccc(O)cc1)c1ccccc1Cl` (stereo not shown) [Compound 13s]: the IC50 reads like this: under setting [1], no more than 10 µM; under setting [2], no more than 1 µM. As for `Nc1ccc(Cl)cc1C(SCC(=O)NCCc1ccc(O)c(I)c1)c1ccccc1Cl` (stereo not shown) [Compound 13t], under setting [1], the 50% inhibitory concentration (IC50) was no more than 10 µM. Regarding `Nc1ccc(Cl)cc1C(SCC(=O)NCCc1cc(I)c(O)c(I)c1)c1ccccc1Cl` (stereo not shown) [Compound 13u], the half-maximal inhibitory concentration (IC50) runs as follows: under setting [1], no more than 10 µM; under setting [2], no more than 1 µM. In the same order, the values of `NCCOCCOCCNC(=O)CSC(c1cc(Cl)ccc1N)c1ccccc1Cl` (stereo not shown) [Compound 13v] are no more than 10 µM and no more than 1 µM. Regarding `Nc1ccc(Cl)cc1C(SCc1nc(-c2ccc(F)cc2)no1)c1ccccc1Cl` (stereo not shown) [Compound 14a], the IC50 under setting [1] was no more than 10 µM. As to `Cc1noc(CSC(c2cc(Cl)ccc2N)c2ccccc2Cl)n1` (stereo not shown) [Compound 14b], the IC50 is no more than 10 µM under setting [1] and no more than 1 µM under setting [2]. Consider `Cc1cc(C)cc(C(SCc2nc(C)no2)c2cc(Cl)ccc2N)c1` (stereo not shown) [Compound 14d], for which, under setting [1], the IC50 is no more than 10 µM. `Cc1noc(CSC(c2cccs2)c2cc(Cl)ccc2N)n1` (stereo not shown) [Compound 14g]: the IC50 runs as follows: under setting [1], no more than 10 µM; under setting [2], no more than 1 µM. In the case of `Cc1noc(CSC(c2cc(Cl)ccc2N)c2cccn2C)n1` (stereo not shown) [Compound 14h], the IC50 was no more than 10 µM under setting [1] and no more than 1 µM under setting [2].

`Cc1cccc(C(SCc2nc(C)no2)c2cc(Cl)ccc2N)c1` (stereo not shown) [Compound 14i]: the IC50 under setting [1] was no more than 10 µM. As for `Cc1noc(CSC(c2cc(Cl)ccc2N)c2cccc(C)c2C)n1` (stereo not shown) [Compound 14k], the IC50 is, setting by setting: under setting [1], no more than 10 µM; under setting [2], no more than 1 µM. With `Cc1noc(CSC(c2ccc(C)c(C)c2)c2cc(Cl)ccc2N)n1` (stereo not shown) [Compound 14l], the 50% inhibitory concentration (IC50) under setting [1] is no more than 10 µM. Regarding `Cc1ccc(C)c(C(SCc2nc(C)no2)c2cc(Cl)ccc2N)c1` (stereo not shown) [Compound 14m], the IC50 under setting [1] is no more than 10 µM.
